Data on nine molecules can be found in PubChem BioAssay (NCI).

Structures are written as SMILES.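 In this assay, cells in 96-well plates receive the compound at five concentrations for 48 hours. Endpoints are linearly interpolated between the surrounding concentrations. The concentration for 50% growth inhibition is given as GI50. TGI marks complete inhibition of growth.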 Where only a bound is given, the exact number is not on record here.

Common to all, as to assay: inhibition of tumour cell growth, NCI panel, 48 h
Assay [1] relates to ACHN renal.
For assay [2], the system named is SW-620 colon.
Assay [3] relates to SNB-75 CNS.
The subject of assay [4] is K-562 leukemia.
The subject of assay [5] is HT29 colon.
Assay [6] relates to LOX IMVI melanoma.
For assay [7], the system named is U251 CNS.
Assay [8] has as its system 786-0 renal.
Assay [9] relates to M14 melanoma.
The subject of assay [10] is SK-MEL-28 melanoma.

As to `NC(N)=N/N=C(/c1ccccc1)c1ccccc1F`, the GI50 in assay [1] was 4.49 µM; in [2], 2.75 µM; in assay [3], 0.661 µM; in [4], 1.32 µM; in assay [5], 0.628 µM; in assay [6], 4.69 µM. In addition, the GI50 in [7] was 2.64 µM; in assay [8], 4.58 µM; in assay [9], 1.7 µM; in assay [10] it was 4.69 µM. In addition, the TGI in assay [1] is 20 µM; in assay [2] it was 21.1 µM; in [3], 21.7 µM; in [4], more than 100 µM; in assay [5], 11.5 µM; in assay [6], 19.9 µM. The TGI in assay [7] stood at 13.3 µM; in assay [8], 21 µM; in assay [9] it was 9.59 µM; in [10], 21.4 µM.
Consider `COC(=O)C1CCC(=O)N1/C(C)=N/NC(=O)Nc1ccc(Cl)c(Cl)c1` (stereo not given), for which the TGI in assay [1], in assay [2], in assay [3], in assay [4], in assay [6] and in assay [7] was more than 100 µM throughout. For the same molecule, the TGI in [8], in assay [9] and in assay [10] was more than 100 µM each time.
On to `O=C(N/N=C/c1ccc(F)cc1)c1ccc(C(F)(F)F)nc1Nc1cccc(C(F)(F)F)c1`, for which the GI50 in [1] is 1.66 µM; in assay [2] it was 0.959 µM; in assay [3] it was 1.64 µM; in assay [4] it was 1.07 µM; in assay [5] it was 2.02 µM; in assay [6] it was 0.522 µM. The GI50 in [7] was 0.598 µM; in assay [8], 0.691 µM; in [9], 0.916 µM; in [10], 1.79 µM. In addition, the TGI came out at 4.04 µM in assay [1]; 8.44 µM in [2]; 10.2 µM in assay [3]; 5.02 µM in assay [4]; 5.23 µM in assay [5]; 2.17 µM in assay [6]. The TGI in assay [7] came to 2.98 µM; in assay [8], 4.62 µM; in assay [9] it was 10.1 µM; in [10] it was 7.92 µM.
`CNCc1cccc2c1OCCOCCOCCC(C)S(=O)(=O)c1ccc(cc1)-c1cnc(N)c(n1)C(=O)N2` (stereo not given): the GI50 in assay [1] was 1.3 µM; in [2], 2.13 µM; in assay [3] it was 0.119 µM; in assay [4], 1.5 µM; in [5], 1.44 µM; in assay [6] it was 1.81 µM. For the same molecule, the GI50 is 1.15 µM in assay [7], 0.516 µM in assay [8], 1.27 µM in [9] and 1.77 µM in assay [10]. Besides, the TGI in assay [1] is 2.82 µM; in assay [2], 10.7 µM; in assay [3] it was 1.59 µM; in assay [4], 10.4 µM; in assay [5], 8.99 µM; in assay [6] it was 5.41 µM. In addition, the TGI worked out at 3.62 µM in assay [7], 2.06 µM in assay [8], 3.03 µM in assay [9] and 3.37 µM in assay [10].
Consider `CC(=O)[O-].[Mn+3].[O-]c1ccc(Cl)cc1C=NCCN=Cc1cc(Cl)ccc1[O-]`, for which the GI50 in assay [1] was more than 100 µM; in assay [3], more than 100 µM; in assay [4], more than 100 µM; in assay [5], more than 100 µM; in assay [6], 38.6 µM; in assay [7] it was more than 100 µM. Further, the GI50 in [8] is more than 100 µM; in assay [9], 71.6 µM; in [10], more than 100 µM. The TGI in assay [1], in assay [3], in assay [4], in [5], in assay [6] and in assay [7] was more than 100 µM each time. For the same molecule, the TGI in assay [8], in assay [9] and in [10] was more than 100 µM each time.
In the case of `O=C(C(=O)c1cc(Br)ccc1O)c1cc(Br)ccc1O`, the GI50 in assay [1] is 3.75 µM; in assay [3] it was 3.26 µM; in assay [4], 2.82 µM; in assay [5], 14.6 µM; in [6], 3.48 µM; in [7], 2.8 µM. Also, the results for the GI50 in assay [8], in assay [9] and in assay [10] were 3.87 µM, 4.96 µM and 8 µM, respectively. Further, the TGI was 50 µM in assay [1]; 29.4 µM in assay [3]; more than 100 µM in [4]; more than 100 µM in assay [5]; 13.6 µM in assay [6]; 9.94 µM in assay [7]. For the same molecule, the TGI in assay [8] is 13.7 µM; in assay [9], 20.1 µM; in assay [10] it was more than 100 µM.
As to `C#CC#CC#CC#CC#CC#CC#CC#CC[C@@H]1OC[C@@H](COC(=O)O[C@@H](C(=O)O[C@H]2C[C@@]3(O)[C@@H](OC(=O)c4ccccc4)[C@@H]4[C@]5(OC(C)=O)CO[C@@H]5C[C@H](O)[C@@]4(C)C(=O)[C@H](OC(C)=O)C(=C2C)C3(C)C)[C@@H](NC(=O)c2ccccc2)c2ccccc2)O1`, the GI50 in [1] was 2.02 µM; in assay [2], 0.188 µM; in assay [3] it was 0.0599 µM; in assay [4], 0.17 µM; in assay [5], 0.095 µM; in [6], 0.0935 µM. The values for the GI50 in assay [7], in assay [8] and in assay [9] were 0.316 µM, 1.09 µM and 0.165 µM, respectively. The TGI in assay [1] was more than 33.3 µM; in [2], more than 33.3 µM; in assay [3] it was 0.469 µM; in [4], more than 33.3 µM; in assay [5], more than 33.3 µM; in assay [6] it was more than 33.3 µM. The TGI in [7] was more than 33.3 µM; in assay [8], more than 33.3 µM; in assay [9] it was 1.38 µM.
For `O=C(Nc1ccc(C(F)(F)F)cc1[N+](=O)[O-])c1cccnc1`, the TGI in assay [1], in [2], in [3], in assay [4], in [6] and in assay [7] was more than 100 µM throughout. Also, the TGI in [8], in assay [9] and in assay [10] was more than 100 µM each time.
For `COc1ccc(-c2cc(-c3ccccc3)nc(NCCNc3ccnc4cc(Cl)ccc34)n2)cc1`, the GI50 in [1] was 1.7 µM; in assay [2], 1.32 µM; in [3], 1.6 µM; in assay [4], 0.323 µM; in assay [5] it was 1.72 µM; in assay [6], 1.55 µM. Also, the GI50 in assay [7] was 1.75 µM; in assay [8], 1.72 µM; in [10], 1.73 µM. In addition, the TGI in [1] was 3.16 µM; in assay [2] it was 2.99 µM; in assay [3] it was 3.05 µM; in assay [4], 1.03 µM; in assay [5], 3.43 µM; in [6], 3.26 µM. The TGI in assay [7] is 3.38 µM; in assay [8], 3.35 µM; in assay [10], 3.35 µM.
